Where “and” joins values, the source holds several entries; their conditions need not be identical. Equal entries are not always repeated. Entries after “also recorded” stand apart in the source; their conditions may differ.
How the values were obtained:
[1] = test system: BTK C481S mutant; conditions: cited from earlier work
[2] = test system: MOLM-14 cells; assay: AlamarBlue cell viability assay, MOLM-14; conditions: for Cell viability, MOML-14: Supplementary Figure 7, replicates
Experimental: The IC50 was calculated using GraphPad Prism software with a four-parameter dose-response curve fit.

[3] = test system: Mino; assay: IC50 in MCL cell lines (Supplementary Table 2), Mino; conditions: Mino; triplicates
[4] = test system: Rec-1; assay: IC50 in MCL cell lines (Supplementary Table 2), Rec-1; conditions: for Cell Viability (%): Rec-1 cells, replicate wells
[5] = test system: Jeko-1; assay: IC50 in MCL cell lines (Supplementary Table 2), Jeko-1; conditions: for Cell Viability (%): Jeko-1 cells, replicate wells
[6] = test system: Maver-1; assay: IC50 in MCL cell lines (Supplementary Table 2), Maver-1; conditions: Maver-1; triplicates
[7] = target: T1, NanoLuc-CRBN fusion (Homo sapiens, UniProt Q96SW2); assay: NanoBRET CRBN in-cell target engagement assay; assay type: cell-based; conditions: Figure 3h, replicates
T1 construct: host or cells: HEK 293T/17
T1 sequence (Q96SW2 whole entry, the tested form may be a part): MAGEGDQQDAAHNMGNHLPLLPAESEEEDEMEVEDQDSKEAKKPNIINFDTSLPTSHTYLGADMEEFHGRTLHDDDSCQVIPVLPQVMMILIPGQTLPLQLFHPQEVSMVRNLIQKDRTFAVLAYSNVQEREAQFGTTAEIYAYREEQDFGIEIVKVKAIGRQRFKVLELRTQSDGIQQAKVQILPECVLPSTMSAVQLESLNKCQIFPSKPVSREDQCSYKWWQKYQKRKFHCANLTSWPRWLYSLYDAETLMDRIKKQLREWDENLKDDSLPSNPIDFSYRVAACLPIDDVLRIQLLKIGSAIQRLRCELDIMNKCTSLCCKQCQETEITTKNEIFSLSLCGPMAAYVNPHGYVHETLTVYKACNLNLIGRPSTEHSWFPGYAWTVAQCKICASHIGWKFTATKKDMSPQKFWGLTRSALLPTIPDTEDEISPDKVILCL
T1 sequence (Q16531 whole entry partner, the tested form may be a part): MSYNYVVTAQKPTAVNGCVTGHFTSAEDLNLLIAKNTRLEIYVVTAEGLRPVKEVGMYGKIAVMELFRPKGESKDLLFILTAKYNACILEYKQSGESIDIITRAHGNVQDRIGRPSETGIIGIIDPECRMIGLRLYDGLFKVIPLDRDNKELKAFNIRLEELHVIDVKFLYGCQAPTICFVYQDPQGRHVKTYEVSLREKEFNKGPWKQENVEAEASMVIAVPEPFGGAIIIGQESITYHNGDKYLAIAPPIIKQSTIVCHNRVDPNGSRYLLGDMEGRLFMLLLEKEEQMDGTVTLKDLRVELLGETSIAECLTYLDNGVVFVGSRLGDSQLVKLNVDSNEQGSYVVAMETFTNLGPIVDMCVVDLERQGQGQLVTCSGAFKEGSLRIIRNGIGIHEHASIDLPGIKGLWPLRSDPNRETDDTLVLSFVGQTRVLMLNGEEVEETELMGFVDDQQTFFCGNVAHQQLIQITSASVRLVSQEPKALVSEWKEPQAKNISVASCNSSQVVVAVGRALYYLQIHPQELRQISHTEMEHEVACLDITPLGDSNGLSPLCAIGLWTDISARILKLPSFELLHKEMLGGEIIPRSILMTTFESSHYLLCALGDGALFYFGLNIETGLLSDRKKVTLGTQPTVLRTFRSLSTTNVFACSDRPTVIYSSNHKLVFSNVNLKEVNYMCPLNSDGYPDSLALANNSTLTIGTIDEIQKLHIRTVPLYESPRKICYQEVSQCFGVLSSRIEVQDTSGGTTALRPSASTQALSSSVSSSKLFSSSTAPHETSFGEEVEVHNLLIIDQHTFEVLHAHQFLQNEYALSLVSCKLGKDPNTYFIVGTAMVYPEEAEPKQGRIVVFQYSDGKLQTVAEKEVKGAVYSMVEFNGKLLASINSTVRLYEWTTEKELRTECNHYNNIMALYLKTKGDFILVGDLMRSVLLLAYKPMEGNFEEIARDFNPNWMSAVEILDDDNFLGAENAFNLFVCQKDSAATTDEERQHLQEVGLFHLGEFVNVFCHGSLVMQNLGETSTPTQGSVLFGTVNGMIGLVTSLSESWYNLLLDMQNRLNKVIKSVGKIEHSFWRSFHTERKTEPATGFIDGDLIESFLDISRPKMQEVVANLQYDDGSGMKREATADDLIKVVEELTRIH
Experimental: The target engagement assay for BTK or CRBN was from Promega (BTK kit, Cat. No. N2500; CRBN kit, Cat. No. CS1810C136) and was performed according to the manufacture’s instruction with some modifications. […] After 2 h incubation, the 3X Nano-Glo® Substrate with NanoLuc® extracellular inhibitor were added to cells and developed for 3 min at room temperature. BRET signals were collected using a BioTek SYNERGY H1 microplate reader equipped with a 450/80-nm BP filter for donor emission and a 610-nm LP filter for acceptor emission. BRET Ratio was calculated with the equation: [(Acceptor sample/Donor sample)–(Acceptor no tracer control/Donor no tracer control)] × 1000. The IC50 of the compound against its BTK or CRBN tracer was calculated using GraphPad Prism software.

[8] = test system: truncated Cereblon protein; assay: CRBN binding assay (fluorescence quenching); conditions: for Fluorescence Intensity: Supplementary Figure 11, replicates
Experimental: The Kd values of compounds to CRBN were measured based on fluorescence quenching after compounds binding to CRBN. […] All the compounds were dissolved in DMSO (10 mM) as stock solutions. The final drug concentration is 100 nM. […] Fluorescence intensity values for control wells (assay buffer only) were subtracted from each data point prior to analysis. The Kd was calculated using GraphPad Prism with the following equation curve fit. I=I0−If×Kd/P0+Kd+If

[9] = target: BTK (Homo sapiens, UniProt Q06187); assay: BTK degradation in MOLM-14 cells (western blot); assay type: cell-based; parameters: endogenous in cells; host or cells: MOLM-14
Chain of BTK (Q06187 whole entry): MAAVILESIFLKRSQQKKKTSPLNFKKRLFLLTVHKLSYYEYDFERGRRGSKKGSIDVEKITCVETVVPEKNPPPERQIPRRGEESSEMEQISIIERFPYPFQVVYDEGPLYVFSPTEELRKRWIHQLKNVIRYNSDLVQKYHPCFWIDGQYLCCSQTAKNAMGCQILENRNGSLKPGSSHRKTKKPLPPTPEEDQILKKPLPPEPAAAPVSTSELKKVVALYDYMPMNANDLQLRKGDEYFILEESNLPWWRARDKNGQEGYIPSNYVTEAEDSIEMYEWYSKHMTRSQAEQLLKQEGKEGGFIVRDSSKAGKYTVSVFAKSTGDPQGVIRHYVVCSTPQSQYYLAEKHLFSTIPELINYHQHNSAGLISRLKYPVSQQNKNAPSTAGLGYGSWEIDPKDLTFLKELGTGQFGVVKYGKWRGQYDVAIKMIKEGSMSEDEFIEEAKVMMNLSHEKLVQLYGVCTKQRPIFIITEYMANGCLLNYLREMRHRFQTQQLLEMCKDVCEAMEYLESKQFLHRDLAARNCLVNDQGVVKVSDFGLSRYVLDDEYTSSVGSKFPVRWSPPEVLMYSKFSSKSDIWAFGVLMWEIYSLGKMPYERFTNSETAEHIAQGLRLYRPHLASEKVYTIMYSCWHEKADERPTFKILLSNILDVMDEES

C=CC(=O)N1CCC[C@@H](n2nc(-c3ccc(Oc4ccccc4)cc3)c3c(N)ncnc32)C1 [IRC-Ctrl, ibrutinib, reference compound]
IC50 [1]: 0.0046 µM | IC50 ([2]; Homo sapiens, MOLM-14, 72 h, read-out: Cell viability IC50): 0.33 µM | Cell viability, MOML-14 ([2]; drug concentration 1.00E-05 M): 2.829 and 3.671 and 10.6075 and 4.63 and 7.964 | Cell viability, MOML-14 ([2]; drug concentration 1.60E-08 M): 78.5123 and 71.6258 and 103.431 and 81.3409 | Cell viability, MOML-14 ([2]; drug concentration 2.00E-06 M): 11.3315 and 13.8066 and 22.1242 and 13.453 and 22.4778 | Cell viability, MOML-14 ([2]; drug concentration 3.20E-09 M): 74.4713 and 69.3023 and 89.0692 and 86.5941 and 80.2465 | Cell viability, MOML-14 ([2]; drug concentration 4.00E-07 M): 35.4256 and 44.6356 and 55.26 and 47.599 and 43.2718 | Cell viability, MOML-14 ([2]; drug concentration 6.40E-10 M): 87.7559 and 71.8279 and 83.9002 | Cell viability, MOML-14 ([2]; drug concentration 8.00E-08 M): 71.3059 and 57.3983 and 86.3921 and 79.7919 and 76.879 | IC50 [3]: 3.8 µM | IC50 ([4]; Rec-1, triplicates): 6.2 µM | Cell Viability (%) ([4]; 1.50E-05 M): 8.535% and 9.796% and 10.5906% | Cell Viability (%) ([4]; 1.88E-06 M): 74.3495% and 75.6404% and 76.9194% | Cell Viability (%) ([4]; 3.00E-05 M): 2.364% and 2.247% and 2.265% | Cell Viability (%) ([4]; 3.75E-06 M): 66.2063% | Cell Viability (%) ([4]; 4.69E-07 M): 84.8624% and 81.0762% and 81.5842% | Cell Viability (%) ([4]; 7.50E-06 M): 44.5947% and 45.7572% and 45.7871% | Cell Viability (%) ([4]; 9.38E-07 M): 81.9548% and 81.1808% and 88.2512% | IC50 ([5]; Jeko-1, triplicates): 0.3 µM | Cell Viability (%) ([5]; 1.50E-05 M): 2.151% and 2.02% and 1.9313% | Cell Viability (%) ([5]; 1.88E-06 M): 2.568% and 2.43% and 2.412% | Cell Viability (%) ([5]; 3.00E-05 M): 2.333% and 2.338% and 2.111% | Cell Viability (%) ([5]; 3.75E-06 M): 2.338% and 2.397% and 2.358% | Cell Viability (%) ([5]; 4.69E-07 M): 5.039% and 20.4969% and 18.3979% | Cell Viability (%) ([5]; 7.50E-06 M): 2.252% and 2.304% and 1.966% | Cell Viability (%) ([5]; 9.38E-07 M): 2.5504% and 5.547% and 2.871% | IC50 [6]: 5.4 µM

Nc1cccc2c1C(=O)N(C1CCC(=O)NC1=O)C2=O (stereo not shown) [Pomalidomide, pomalidomide, reference compound]
NanoBRET(%) ([7]; drug concentration 1.00E-05 M): 8.749% and 2.427% | NanoBRET(%) ([7]; drug concentration 1.60E-08 M): 79.9835% and 62.224% and 75.9099% | NanoBRET(%) ([7]; drug concentration 2.00E-06 M): 10.9943% and 16.7844% | NanoBRET(%) ([7]; drug concentration 3.20E-09 M): 86.2914% and 88.5513% and 84.0314% | NanoBRET(%) ([7]; drug concentration 4.00E-07 M): 54.7588% and 35.141% and 58.1892% | NanoBRET(%) ([7]; drug concentration 8.00E-08 M): 88.9359% and 73.8405% and 79.0012% | Fluorescence Intensity ([8]; CRBN 0 μM): 9876.2 and 9503.2 and 9587.2 | Fluorescence Intensity ([8]; CRBN 0.734375 μM): 7603.2 and 7913.2 and 7829.2 | Fluorescence Intensity ([8]; CRBN 1.46875 μM): 6654.2 and 6940.2 and 6542.2 | Fluorescence Intensity ([8]; CRBN 2.9375 μM): 5927.2 and 5996.2 and 5981.2 | Fluorescence Intensity ([8]; CRBN 5.875 μM): 5201.2 and 5168.2 and 5152.2 | Fluorescence Intensity ([8]; CRBN 11.75 μM): 4654.2 and 4688.2 and 4502.2 | Fluorescence Intensity ([8]; CRBN 23.5 μM): 4529.2 and 4338.2 and 4613.2 | Kd ([8]; truncated Cereblon protein, fluorescence quenching, triplicates): 1.4 µM | Quantification anti-BTK / anti-β-actin (BTK level vs DMSO) ([9]; Figure 2d, DMSO = 100 (mean)): 81.7787 | BTK degradation (in words) ([9]; MOLM-14 cells, 200 nM, 24 h (Fig. 2d)): Neither RC-Ctrl, nor pomalidomide, nor a combination of both caused BTK degradation; also recorded: neither the RC-1 warhead, nor pomalidomide, nor a combination of both caused BTK degradation
